Experimental findings from ChEMBL document CHEMBL1201862, “PubChem BioAssay data set” (2004) are described below.

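1) Cells in 96-well plates. 2) Compound, 48 h, 5 concentrations. 3) Linear interpolation between surrounding doses. 4) Unreached endpoint = highest concentration. The concentration for 50% growth inhibition is given as GI50.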 The source made the active and inactive calls. Rule as the data show it: active = GI50 up to about 1.1 µM and inactive = higher.

Among the test systems are MCF7; SK-MEL-2; SW-620; MDA-MB-435; MDA-MB-231; HT-29; NCI-H226; SR; 786-0; PC-3; HOP-92; OVCAR-4; M14; HL-60; NCI/ADR-RES; SN12C; NCI-H23; HCT-15; NCI-H522.
Assay in all cases: inhibition of tumour cell growth, NCI panel, 48 h

Regarding `CC(=O)c1c(O)nnc(-c2ccc(Cl)cc2)c1-c1ccc(Cl)cc1`, the GI50 in the assay with MCF7 was 32.1 µM (inactive); in the assay on SK-MEL-2, 25.1 µM (inactive); in the assay with SW-620 it was 62.5 µM (inactive); in the assay on MDA-MB-435, 29.9 µM (inactive); with MDA-MB-231, 21.2 µM (inactive); in the assay on HT-29, 40.5 µM (inactive). Besides, the GI50 was 31.3 µM (inactive) in the assay on NCI-H226; 27.9 µM (inactive) in the assay on SR; 83.6 µM (inactive) with 786-0; 37.4 µM (inactive) in the assay on PC-3; 52.7 µM (inactive) with HOP-92; 21.1 µM (inactive) in the assay with OVCAR-4. For the same compound, the GI50 is 65.6 µM (inactive) in the assay on M14; 25 µM (inactive) in the assay with HL-60; 30.1 µM (inactive) in the assay on NCI/ADR-RES; 22.3 µM (inactive) in the assay with SN12C; 69.3 µM (inactive) with NCI-H23; 24.2 µM with HCT-15.

In the case of `CN1CN(c2ccccc2)C2(CCN(C3Nc4ccccc4O3)CC2)C1=O` (configuration not stated), the GI50 is 19.5 µM (inactive) with MCF7; 13.6 µM (inactive) with SK-MEL-2; 33.7 µM (inactive) in the assay with SW-620; 19 µM (inactive) in the assay on MDA-MB-435; 20.1 µM (inactive) in the assay with MDA-MB-231; 17.9 µM (inactive) in the assay on HT-29. Moreover, the GI50 with NCI-H226 is 18.6 µM (inactive); with SR it was 36.9 µM (inactive); in the assay on 786-0, 20.6 µM (inactive); in the assay on PC-3, 16.7 µM (inactive); in the assay with M14, 18.5 µM (inactive); in the assay with HL-60, 12.5 µM (inactive). The GI50 in the assay on NCI/ADR-RES is 20.8 µM (inactive); in the assay on SN12C, 19.2 µM (inactive); in the assay on NCI-H23, 21.2 µM (inactive); with HCT-15 it was 15.2 µM; with NCI-H522 it was 17.5 µM (inactive).

Take `COC(=O)CC(c1cn(S(=O)(=O)c2ccc(C)cc2)c2ccccc12)C1C[C@@H](C(=O)OC)N(C(=O)OC(C)(C)C)C1=O` (some centres not stated): the GI50 in the assay on MCF7 was 33.5 µM (inactive); in the assay with SK-MEL-2 it was 44.3 µM (inactive); in the assay with SW-620, 12.5 µM (inactive); in the assay on MDA-MB-435, 41 µM (inactive); in the assay with MDA-MB-231 it was 22.5 µM (inactive); in the assay on HT-29 it was 26.7 µM (inactive). Further, the GI50 with NCI-H226 was > 100 µM (inactive); in the assay with SR, 3.08 µM (inactive); in the assay on 786-0, 63.8 µM (inactive); in the assay on PC-3, 47.6 µM (inactive); in the assay with OVCAR-4 it was 55.3 µM (inactive); with M14, > 100 µM (inactive). Also, the GI50 is > 100 µM (inactive) in the assay with HL-60; 4.89 µM (inactive) in the assay with NCI/ADR-RES; 32.1 µM (inactive) with SN12C; 66.8 µM (inactive) in the assay on NCI-H23; 26.5 µM with HCT-15; 55.3 µM (inactive) in the assay on NCI-H522.

`O=[N+]([O-])c1ccc2sc(/C=N/c3ccc(O)cc3)cc2c1`: the GI50 is 20.1 µM (inactive) with MCF7; 22 µM (inactive) with SK-MEL-2; 17 µM (inactive) with SW-620; 18.2 µM (inactive) with MDA-MB-435; 17.8 µM (inactive) in the assay with MDA-MB-231; 46.9 µM (inactive) in the assay on HT-29. Moreover, the GI50 is 29.1 µM (inactive) with SR; 19 µM (inactive) in the assay with 786-0; 29.6 µM (inactive) in the assay with PC-3; 32.4 µM (inactive) with HOP-92; 31.3 µM (inactive) in the assay on M14; 18.9 µM (inactive) with HL-60. Also, the GI50 is 28.8 µM (inactive) in the assay with NCI/ADR-RES; 30.1 µM (inactive) in the assay with SN12C; 27.9 µM (inactive) in the assay with NCI-H23; 32.4 µM with HCT-15; 27.7 µM (inactive) in the assay with NCI-H522.

In the case of `CCOC(=O)CC(=O)Nc1cccc2sc3ncccc3c(=O)c12`, the GI50 in the assay with MCF7 is 0.57 µM (active); in the assay on SK-MEL-2 it was 34.3 µM (inactive); with SW-620 it was > 100 µM (inactive); in the assay with MDA-MB-435, 44.7 µM (inactive); in the assay on MDA-MB-231 it was 60.8 µM (inactive); in the assay on HT-29, 38.8 µM (inactive). In addition, the GI50 in the assay on NCI-H226 was 27.9 µM (inactive); in the assay with SR it was 33.3 µM (inactive); in the assay on 786-0, 35 µM (inactive); in the assay with PC-3, 5.81 µM (inactive); in the assay on OVCAR-4, 83.2 µM (inactive); in the assay with M14, 87.1 µM (inactive). For the same compound, the GI50 is 36.8 µM (inactive) in the assay on NCI/ADR-RES; 51.8 µM (inactive) in the assay with SN12C; 32 µM (inactive) in the assay on NCI-H23; 38.4 µM in the assay with HCT-15; 45.4 µM (inactive) in the assay on NCI-H522.

As to `CCN(/C=C1/C(=O)C(c2ccccc2)N(c2ccccc2)C1=O)CC` (configuration not stated), the GI50 in the assay with MCF7, in the assay on SK-MEL-2, in the assay with SW-620, with MDA-MB-435, in the assay on MDA-MB-231 and in the assay with HT-29 was > 10 µM (inactive) each time. Also, the GI50 in the assay with NCI-H226, in the assay with SR, with 786-0, with PC-3, in the assay on OVCAR-4 and in the assay on M14 was > 10 µM (inactive) each time. The GI50 is > 10 µM (inactive) in the assay on HL-60; > 10 µM (inactive) in the assay on NCI/ADR-RES; > 10 µM (inactive) in the assay on SN12C; > 10 µM (inactive) in the assay on NCI-H23; above 10 µM in the assay on HCT-15; > 10 µM (inactive) in the assay with NCI-H522.

As to `CCOC(OCC)C(CCc1ccccc1)c1c(N)nc(N)[nH]c1=O` (configuration not stated), the GI50 was 33.1 µM (inactive) with MCF7; 53 µM (inactive) in the assay on SK-MEL-2; 78.7 µM (inactive) with SW-620; 32.4 µM (inactive) in the assay with MDA-MB-435; > 100 µM (inactive) in the assay with MDA-MB-231; 55.1 µM (inactive) in the assay on HT-29. The GI50 in the assay with NCI-H226 was 41.2 µM (inactive); in the assay with SR, 32.4 µM (inactive); with 786-0 it was 89.7 µM (inactive); in the assay on PC-3 it was 39.3 µM (inactive); with HOP-92, 29.6 µM (inactive); in the assay on OVCAR-4 it was 46.1 µM (inactive). Also, the GI50 in the assay on M14 is 80.5 µM (inactive); with HL-60, 25.2 µM (inactive); in the assay on NCI/ADR-RES, > 100 µM (inactive); in the assay with SN12C it was 56.8 µM (inactive); in the assay with NCI-H23, 79.8 µM (inactive); in the assay with HCT-15, 68.7 µM.

Turning to `c1ccc2c(c1)Sc1ccccc1N2CCCN1c2ccccc2Sc2ccccc21`, the GI50 in the assay on MCF7 was > 100 µM (inactive); in the assay on SW-620, > 100 µM (inactive); in the assay with MDA-MB-435 it was 58.9 µM (inactive); in the assay with MDA-MB-231, > 100 µM (inactive); in the assay with HT-29, > 100 µM (inactive); with NCI-H226, > 100 µM (inactive). In addition, the GI50 with SR is > 100 µM (inactive); with 786-0, 20.2 µM (inactive); in the assay on PC-3 it was > 100 µM (inactive); in the assay with HOP-92 it was > 100 µM (inactive); with OVCAR-4 it was 36.1 µM (inactive); in the assay with M14, 50.6 µM (inactive). The GI50 was 69.8 µM (inactive) in the assay with NCI/ADR-RES; 91.6 µM (inactive) with SN12C; > 100 µM (inactive) with NCI-H23; above 100 µM in the assay on HCT-15; > 100 µM (inactive) in the assay on NCI-H522.

Regarding `C[C@H](CCCOS(C)(=O)=O)[C@H]1CC[C@H]2[C@@H]3CC[C@@H]4C[C@H](OS(C)(=O)=O)CC[C@]4(C)[C@H]3CC[C@]12C`, the GI50 in the assay on MCF7 is 26.4 µM (inactive); with SK-MEL-2 it was 60.1 µM (inactive); with SW-620, 56 µM (inactive); with MDA-MB-435 it was 20.5 µM (inactive); in the assay on MDA-MB-231 it was 13.8 µM (inactive); in the assay on HT-29, 31.8 µM (inactive). Besides, the GI50 with NCI-H226 was 17.5 µM (inactive); with SR, 19.2 µM (inactive); in the assay on 786-0, 31 µM (inactive); in the assay with PC-3, 20.6 µM (inactive); with HOP-92, 0.118 µM (active); with OVCAR-4, 27.9 µM (inactive). Also, the GI50 in the assay on M14 is 90.4 µM (inactive); in the assay with NCI/ADR-RES, 26.7 µM (inactive); with SN12C, 16.7 µM (inactive); in the assay with NCI-H23, 16.6 µM (inactive); with HCT-15 it was 66.8 µM; in the assay on NCI-H522, 29.7 µM (inactive).

As to `CCS(=O)(=O)CCn1c(=O)c2c(ncn2C)n(C)c1=O`, the GI50 in the assay with MCF7, with SK-MEL-2, in the assay on SW-620, with MDA-MB-435, in the assay on MDA-MB-231 and with HT-29 was > 100 µM (inactive) throughout. Further, the GI50 with SR, in the assay on 786-0, in the assay on PC-3, with HOP-92, with OVCAR-4 and in the assay on M14 was > 100 µM (inactive) throughout. The GI50 in the assay with HL-60 is > 100 µM (inactive); with NCI/ADR-RES, > 100 µM (inactive); in the assay on SN12C, > 100 µM (inactive); with NCI-H23, > 100 µM (inactive); in the assay on HCT-15 it was above 100 µM; in the assay with NCI-H522, > 100 µM (inactive).

As to `COC(=O)[C@@H]1Cc2ccc(OC)c(c2)OCCC(=O)N1`, the GI50 in the assay on MCF7, in the assay on SK-MEL-2, in the assay with SW-620, in the assay on MDA-MB-435, in the assay with MDA-MB-231 and in the assay with HT-29 was > 100 µM (inactive) in each case. Besides, the GI50 was > 100 µM (inactive) in the assay with NCI-H226; 32.6 µM (inactive) in the assay on SR; > 100 µM (inactive) in the assay on 786-0; > 100 µM (inactive) in the assay with PC-3; > 100 µM (inactive) in the assay with OVCAR-4; > 100 µM (inactive) in the assay on M14. Besides, the GI50 in the assay with NCI/ADR-RES was > 100 µM (inactive); in the assay with NCI-H23, > 100 µM (inactive); with HCT-15, above 100 µM; with NCI-H522, > 100 µM (inactive).
